Structures can show the parent of a compound that is named as a salt.
Tests used:
[1] = system: functional blepharoptosis; experiment: Randomized, double-blinded, controlled study of blepharoptosis treatment with naphazoline 0.1% ophthalmic solution; type: in vivo, human
Protocol: To evaluate the effects of an ophthalmic solution containing an α adrenergic agonist on blepharoptosis, a randomized, double-blinded, controlled study was conducted using naphazoline 0.1%. Participants with either unilateral or bilateral upper eyelid blepharoptosis were randomized to receive either control eye drops (control group) or an ophthalmic solution containing active ingredient naphazoline 0.1% (treatment group).
The composition of the treatment group included naphazoline hydrochloride (concentration 0.1% w/v), sodium chloride, boric acid, calcium chloride, magnesium chloride, potassium chloride, sodium borate, PURITE®, methylcellulose, and purified water. The ophthalmic drops of the control group were composed of all of the preceding compounds except for naphazoline hydrochloride.
Baseline external photographs of all participants were obtained before eye drop administration. Visual field and contrast sensitivity testing were also tested at baseline. Visual field testing was conducted using an OCULUS Easyfield® perimeter. Contrast sensitivity was tested using a Pelli-Robson Contrast Sensitivity Chart (Pelli D G, Robson J, Wilkins A J. The design of a new letter chart for measuring contrast sensitivity. Clin Vision Sci. 1988; 2187-99). After one eye drop was administered to one or both eyes depending on the presence of unilateral or bilateral blepharoptosis, a second photo was obtained 30 minutes later. After 60 minutes, visual field and contrast sensitivity tests were repeated. After 120 minutes, a third and final photo was obtained.
MRD-1 is the distance in millimeters from the upper eyelid margin to the light reflex within the pupil. Measurements were made using Image J software (US National Institutes of Health, Bethesda, MD, U.S.A., http://imagej.nih.gov/ij) by a single designated, blinded investigator. The pupil diameter was also measured at all time points. Secondary effects were recorded and included subject-reported eye irritation, pain, blurry vision, light sensitivity, as well as examiner-noted eye injection, eyelid retraction, and pupil diameter. MRD-1 at the two post-administration time points constituted the primary endpoint. Secondary endpoints included visual field assessment and contrast sensitivity testing.

cosmetic blepharoptosis [2] = experiment: Case study of cosmetic blepharoptosis treatment with naphazoline 0.1%; type: in vivo, human
Protocol: They also had brow asymmetry due to compensatory right eyebrow elevation, a separate cosmetic concern. One drop of an ophthalmic solution containing naphazoline 0.1% was administered to the right eye. After 30 minutes, the eyelid was over-elevated with an MRD-1 of 5.5 mm due to continued compensatory brow elevation of the subject's right eyebrow (FIG. 5b). […] Three hours after drop administration, the eyelid and brow symmetry were maintained (FIG. 5d).

cosmetic blepharoptosis [3] = experiment: Controlled study of topical naphazoline 0.1% to improve cosmetic blepharoptosis; type: in vivo, human
Protocol: A comparative study was conducted to investigate the effect of an ophthalmic solution containing naphazoline 0.1% on cosmetic blepharoptosis. Two groups, the control group and treatment group each consisting of 5 subjects, were matched in terms of age and gender. The control group received one drop of normal saline while the treatment group received one drop of an ophthalmic solution containing naphazoline 0.1%. At both 30 minutes and 120 minutes after drop administration, external photographs were obtained and analyzed using Image J imaging software. MRD-1 and the distance between the upper and lower eyelid margins were measured to quantitatively assess cosmetic blepharoptosis. Secondary effects were also recorded, including conjunctival injection, eye pain or irritation, light sensitivity, and pupil size.

[4] = system: functional blepharoptosis; experiment: Randomized, controlled study of blepharoptosis treatment with tetrahydrozoline 0.1% ophthalmic solution; type: in vivo, human
Protocol: To evaluate the effects of an ophthalmic solution containing an α adrenergic agonist (tetrahydrozoline) on blepharoptosis, a randomized, controlled study was conducted. Participants with both unilateral or bilateral blepharoptosis were randomized to receive either the control eye drop or an ophthalmic solution containing active ingredient tetrahydrozoline 0.1%. Subjects and drop administrators were blinded to the intervention. […] The composition of the treatment group included tetrahydrozoline hydrochloride (concentration 0.1% w/v), sodium chloride, boric acid, calcium chloride, magnesium chloride, potassium chloride, sodium borate, PURITE®, methylcellulose, and purified water. The ophthalmic drops of the control group were composed of all of the preceding compounds except for tetrahydrozoline hydrochloride. Baseline external photographs of all participants were obtained before eye drop administration. After one eye drop was administered, a second photo was obtained 30 minutes later. After 90 minutes, a third and final photo was obtained. The pupil diameter in millimeters was also measured in photos at all time points. Measurements were made using Image J software by a single designated, blinded investigator. Secondary effects from the intervention were recorded including subject-reported eye irritation, pain, blurry vision, light sensitivity, as well as examiner-noted eye injection, eyelid retraction, and pupil size change from baseline.

[5] = system: α adrenergic receptors within Müller's muscle; settings: ophthalmic use for pupil dilation; background statement; cited from earlier work

Q: With `c1ccc2c(CC3=NCCN3)cccc2c1` [Naphazoline, naphazoline hydrochloride] as the compound, how does the “difference in proportion of individuals who reported minor side effects, treatment vs control group” value ([1]; 0.1% ophthalmic solution) read?
A: The value was “not statistically significant”.

Q: What about the “visual field and contrast sensitivity improvement compared to the control group” value ([1]; 0.1% ophthalmic solution, 60 minutes after drop) of the same compound?
A: Its value is “greater”.

Q: What about the “improvement in MRD-1 compared to the control group” value ([1]; 0.1% ophthalmic solution, at 30 minutes and 120 minutes) of the same compound?
A: Its value is “statistically significant improvement”.

Q: What about the “Contrast Sensitivity Δ (mean)” value ([1]; Pelli-Robson chart, 60 minutes after one drop 0.1%, baseline 1.29, control 0.03, P 0.03) of the same compound?
A: The value was 0.69.

Q: And the “MRD1 Δ 30 minutes (mean, mm)” value ([1]; one drop of 0.1% w/v ophthalmic solution, 19 subjects, baseline MRD1 0.93 mm, 30 minutes after drop, control 0.02, P <0.001)?
A: The value was 2.15 mm.

Q: What about the “MRD1 Δ 120 minutes (mean, mm)” value ([1]; one drop of 0.1% w/v ophthalmic solution, 19 subjects, 120 minutes after drop, control 0.01, P 0.009) of the same compound?
A: The value was 2.08 mm.

Q: What about the “overall effect on eyelids, visual field, contrast sensitivity and cosmetic appearance” value ([1]; one drop of ophthalmic composition 0.1% administered twice daily (as summarised in b67 for Example 1)) of the same compound?
A: The value was “resulted in eyelid elevation, improvement of a superior visual field defect, increased contrast sensitivity, and improved cosmetic appearance of the eyes, eyelids, and eyebrows”.

Q: And the “Secondary Effects (%)” value ([1]; proportion of subjects, one drop 0.1%, control 9.5, P 0.17)?
A: Its value is 10.5%.

Q: What about the “VF Δ (mean, % correct)” value ([1]; visual field, OCULUS Easyfield perimeter, 60 minutes after one drop 0.1%, baseline 33.8, control 2.1, P <0.001) of the same compound?
A: The value was 56.6 % correct.

Q: What about the “eyelid and brow symmetry after brow relaxation” value (cosmetic blepharoptosis [2]; one drop 0.1%, FIG. 5c (120 minutes)) of the same compound?
A: Its value is “achieved both eyelid and brow symmetry”.

Q: And the “eyelid and brow symmetry three hours after drop administration” value (cosmetic blepharoptosis [2]; one drop 0.1%, three hours)?
A: The value was “maintained”.

Q: And the “MRD-1 of the right eye” value (cosmetic blepharoptosis [2]; subject, one drop 0.1% ophthalmic solution to the right eye, after 30 minutes, baseline 2.5 mm, eyelid over-elevated due to compensatory brow elevation)?
A: Its value is 5.5 mm.

Q: What about the “difference in secondary effects, including pupil size, between the two groups” value (cosmetic blepharoptosis [3]; 0.1% ophthalmic solution) of the same compound?
A: Its value is “no difference”.

Q: What about the “improvement in MRD-1 and eyelid separation compared to the control group” value (cosmetic blepharoptosis [3]; 0.1% ophthalmic solution, 30 and 120 minutes) of the same compound?
A: The value was “statistically significant improvement”.

Q: What about the “MRD1 Δ 30 minutes (mean, %)” value (cosmetic blepharoptosis [3]; one drop 0.1% ophthalmic solution, 5 subjects, baseline MRD1 2.4 mm, control (normal saline) 3.8, P 0.01) of the same compound?
A: Its value is 42%.

Q: And the “MRD1 Δ 120 minutes (mean, %)” value (cosmetic blepharoptosis [3]; one drop 0.1% ophthalmic solution, 5 subjects, control 1.9, P 0.02)?
A: Its value is 38%.

Q: And the “Eyelid Margin Distance Δ 120 minutes (mean, mm)” value (cosmetic blepharoptosis [3]; one drop 0.1%, control 0.02, P 0.03)?
A: The value was 1.33 mm.

Q: What about the “Pupil Size Δ 30 minutes (mean, %)” value (cosmetic blepharoptosis [3]; one drop 0.1%, control 6.7, P 0.37) of the same compound?
A: Its value is 10%.

Q: What about the “Minor Side Effects (%)” value (cosmetic blepharoptosis [3]; one drop 0.1%, control 20, P 0.49) of the same compound?
A: The value was 20%.

Q: And the “Eyelid Margin Distance Δ 30 minutes (mean, mm)” value (cosmetic blepharoptosis [3]; one drop 0.1%, distance between upper and lower eyelid margins, control 0.03, P 0.009)?
A: Its value is 1.45 mm.

Q: Which “difference in proportion of individuals who reported minor side effects, treatment vs control group” value ([4]; 0.1% ophthalmic solution) does the source give for `c1ccc2c(c1)CCCC2C1=NCCN1` (centres unmarked) [Tetrahydrozoline, tetrahydrozoline hydrochloride] here?
A: The value was “not statistically significant”.

Q: And the “pupillary size change compared to the control” value ([4]; 0.1% ophthalmic solution)?
A: Its value is “greater in the treatment group compared to the control, however, this change was not statistically significant”.

Q: What about the “blepharoptosis improvement compared to the control group” value ([4]; 0.1% ophthalmic solution, both time points) of the same compound?
A: Its value is “statistically significant at both time points”.

Q: And the “Minor Side Effects (%)” value ([4]; one drop 0.1%, control 2.1, P 0.07)?
A: Its value is 6.7%.

Q: And the “Pupil Size Δ 30 minutes (mean, %)” value ([4]; one drop 0.1%, control 5.8, P 0.09)?
A: The value was 9.3%.

Q: What about the “MRD1 Δ 30 minutes (mean, mm)” value ([4]; one drop of 0.1% w/v ophthalmic solution, 11 subjects, baseline MRD1 0.85 mm, control 0.04, P 0.01) of the same compound?
A: The value was 2.01 mm.

Q: What about the “MRD1 Δ 120 minutes (mean, mm)” value ([4]; one drop of 0.1% w/v ophthalmic solution, 11 subjects, control 0.02, P 0.009) of the same compound?
A: Its value is 1.97 mm.

Q: With `CNC[C@H](O)c1cccc(O)c1` [phenylephrine] as the compound, how does the “duration of pupillary dilation and disabling light sensitivity” value [5] read?
A: Its value is “up to seven hours”.

Q: And the “duration of the effect of eyelid elevation” value [5]?
A: Its value is “less than ten minutes”.

Reference: patent publication US20240225978A1, “METHODS AND COMPOSITIONS FOR PHARMACOLOGICAL TREATMENT OF BLEPHAROPTOSIS” (priority 2021, published 2024)
